In patent publication US6555328B1, “Screening methods for altering circadian rhythms and for human casein kinase I δ and/or ε phosphorylation of human clock proteins, period 1, -2 and -3” (Aventis Pharmaceuticals Inc., priority 1999, dated 2003):

Assays:
Type in all cases: cell-based
[1] = biological target: hCKIε phosphorylation of hPER1 (Homo sapiens, UniProt P49674); experiment: Treatment of transfected cells with hCKIε inhibitor: hPER1 phosphorylation
Source text: (§1) Furthermore, like hCKIε and hPER1, HCKIε co-immunoprecipitates with transfected hPER2. Treatment of transfected cells with the hCKIε inhibitor, CKI-7, results in a decrease of hPER1 and hPER2 phosphorylation. Pulse/chase studies reveal that increased phosphorylation of hPER2 by transfected hCKIε caused hPER2 to be degraded.

[2] = biological target: hCKIε phosphorylation of hPER2 (Homo sapiens, UniProt P49674); experiment: Treatment of transfected cells with hCKIε inhibitor: hPER2 phosphorylation
Source text: as §1

[3] = test system: rat PER1 oscillation in Rat1 fibroblast or Rat SCN cells; experiment: PER1 mRNA oscillation after serum shock by TaqMan RT-PCR; conditions: 10 uM, FIG. 10/11
Protocol: To test the effect of CKI inhibitors in altering rat PER1 oscillation by quantitative PCR using TaqMan RT-PCR (Perkin Elmer Biosystems), rat-1 fibriblasts are grown in Dulbecco's modified Eagle medium supplimented with 5% fetal calf serum and a mixture of penicillin-streptomycin-glutatamine. SCN cells are grown in Dulbecco's Minimum Eagle medium supplimented with 10% fetal calf serum penicillin-streptomycin-glutamine and 2% glucose. Approximately 5×10^5 cells are plated in 10 cm petri dishes 3-5 days prior to the experiment. Once the plates are confluent, which is designated as time=0, the medium is exchanged with serum rich medium, i.e. serum containing 50% horse serum. After 2 hours of the serum shock in 50% horse serum, this medium is replaced with serum-free medium. At indicated times, the dishes are washed with PBS and kept frozen at −80° C. until the extraction of whole cell mRNA. hCK1ε inhibitor or control is added at the time when serum-free medium is added.
Whole cell mRNA is extracted by means of RNeasy Midi kit or Rnleasy 96 kit (Qiagen) and Dnase treated (Ambion DNA-free). Quantitative PCR is performed with real-time Taq-Man technology (PE Biosystems) [C. A. Heid et al., Genomes Res. 6. M (1996)] and analysed on an ABI PRISM 7700 (T. Takumi et al., Genes Cells 4, 67: 1999). […] Ratios of rPer1 to rActin were calculated and normalized.

Chain of hCKIε phosphorylation of hPER2 (P49674 whole entry): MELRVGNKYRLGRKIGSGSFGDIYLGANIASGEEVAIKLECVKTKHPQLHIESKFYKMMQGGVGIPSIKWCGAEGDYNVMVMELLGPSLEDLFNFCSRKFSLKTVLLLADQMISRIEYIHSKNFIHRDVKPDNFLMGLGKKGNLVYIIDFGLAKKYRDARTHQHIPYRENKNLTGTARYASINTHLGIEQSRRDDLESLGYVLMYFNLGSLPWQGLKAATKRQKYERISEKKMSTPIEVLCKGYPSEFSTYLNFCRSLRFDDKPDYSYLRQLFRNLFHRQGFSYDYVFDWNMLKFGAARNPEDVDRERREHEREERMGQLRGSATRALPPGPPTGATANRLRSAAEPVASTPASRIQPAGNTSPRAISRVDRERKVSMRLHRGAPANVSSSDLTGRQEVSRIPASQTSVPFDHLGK
Chain of hCKIε phosphorylation of hPER1 (P49674 whole entry): as above

Row | hPER1 phosphorylation [1] | hPER2 phosphorylation [2] | Compound | effect on circadian rhythm of cells (rat Per1 mRNA levels) [3]
1 | decrease | decrease | NCCNS(=O)(=O)c1ccc(Cl)c2ccncc12 [CKI-7] | 
2 |  |  | CNCCC(Oc1ccc(C(F)(F)F)cc1)c1ccccc1 (stereo not drawn) [F, Fluoxitin] | do not alter the circadian rhythm of cells
